From publication PMC7832087 (European journal of medicinal chemistry, 2016)
Values belong to the compound of their own block, whether it stands above or below them.

Key:
Top1 [1] = molecular target: T1, Top1 (Homo sapiens, UniProt P11387); assay: Top1 mediated DNA cleavage; assay type: biochemical; settings: 117 bp oligonucleotide with Top1 cleavage sites
T1 sequence (P11387 1-765): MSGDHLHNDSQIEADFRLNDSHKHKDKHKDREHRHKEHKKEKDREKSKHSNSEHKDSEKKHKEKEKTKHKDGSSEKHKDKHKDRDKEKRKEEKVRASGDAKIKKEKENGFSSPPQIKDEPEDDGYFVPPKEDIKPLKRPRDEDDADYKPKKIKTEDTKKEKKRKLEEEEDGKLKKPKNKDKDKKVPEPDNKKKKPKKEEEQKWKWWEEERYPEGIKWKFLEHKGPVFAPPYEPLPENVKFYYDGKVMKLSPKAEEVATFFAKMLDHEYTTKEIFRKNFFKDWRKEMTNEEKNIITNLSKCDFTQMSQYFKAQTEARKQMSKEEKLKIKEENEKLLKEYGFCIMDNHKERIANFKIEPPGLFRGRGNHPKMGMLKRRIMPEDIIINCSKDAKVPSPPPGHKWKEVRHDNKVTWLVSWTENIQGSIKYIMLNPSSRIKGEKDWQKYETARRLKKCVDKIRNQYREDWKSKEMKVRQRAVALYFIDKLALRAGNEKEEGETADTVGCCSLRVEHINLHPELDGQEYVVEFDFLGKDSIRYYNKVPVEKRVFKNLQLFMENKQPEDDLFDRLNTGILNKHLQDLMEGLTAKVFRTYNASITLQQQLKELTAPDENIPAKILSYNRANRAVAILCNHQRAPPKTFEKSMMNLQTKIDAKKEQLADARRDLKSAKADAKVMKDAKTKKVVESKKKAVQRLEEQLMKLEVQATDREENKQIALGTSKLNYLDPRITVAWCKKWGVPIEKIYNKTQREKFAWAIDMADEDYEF

K562 and K562/4 cells = assay: Intracellular drug accumulation; assay type: cell-based, human; settings: 1 μM, 1 h to 24 h
[2] = tested on: i.p. transplanted P388 leukemia; settings: similar treatment schedule, total dose 150 mg/kg for five days; cited from earlier work
Aurora B = Aurora B (Homo sapiens, UniProt Q96GD4); assay: In vitro kinase assay, Aurora B; assay type: biochemical
Chain of Aurora B (Q96GD4 whole entry): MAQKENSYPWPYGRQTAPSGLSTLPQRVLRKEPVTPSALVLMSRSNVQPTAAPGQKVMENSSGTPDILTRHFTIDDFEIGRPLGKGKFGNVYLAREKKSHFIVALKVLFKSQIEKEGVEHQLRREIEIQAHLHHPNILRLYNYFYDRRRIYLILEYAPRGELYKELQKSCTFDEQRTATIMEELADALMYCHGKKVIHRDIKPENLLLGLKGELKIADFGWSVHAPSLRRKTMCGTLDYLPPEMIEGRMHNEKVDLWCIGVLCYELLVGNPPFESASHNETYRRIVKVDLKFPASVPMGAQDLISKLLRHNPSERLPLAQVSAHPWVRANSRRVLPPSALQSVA

Top1 [3] = assay: Top1 DNA relaxation assay; assay type: biochemical; settings: no influence at ≤1 μM, effect at 5 μM and 10 μM
[4] = tested on: donor peripheral blood lymphocytes; assay: Cytotoxicity for donor lymphocytes; assay type: cell-based; settings: data not shown
Top2 = Top2 (Homo sapiens, UniProt P11388); assay: Top2 DNA relaxation assay; assay type: biochemical
Chain of Top2 (P11388 whole entry, species assumed): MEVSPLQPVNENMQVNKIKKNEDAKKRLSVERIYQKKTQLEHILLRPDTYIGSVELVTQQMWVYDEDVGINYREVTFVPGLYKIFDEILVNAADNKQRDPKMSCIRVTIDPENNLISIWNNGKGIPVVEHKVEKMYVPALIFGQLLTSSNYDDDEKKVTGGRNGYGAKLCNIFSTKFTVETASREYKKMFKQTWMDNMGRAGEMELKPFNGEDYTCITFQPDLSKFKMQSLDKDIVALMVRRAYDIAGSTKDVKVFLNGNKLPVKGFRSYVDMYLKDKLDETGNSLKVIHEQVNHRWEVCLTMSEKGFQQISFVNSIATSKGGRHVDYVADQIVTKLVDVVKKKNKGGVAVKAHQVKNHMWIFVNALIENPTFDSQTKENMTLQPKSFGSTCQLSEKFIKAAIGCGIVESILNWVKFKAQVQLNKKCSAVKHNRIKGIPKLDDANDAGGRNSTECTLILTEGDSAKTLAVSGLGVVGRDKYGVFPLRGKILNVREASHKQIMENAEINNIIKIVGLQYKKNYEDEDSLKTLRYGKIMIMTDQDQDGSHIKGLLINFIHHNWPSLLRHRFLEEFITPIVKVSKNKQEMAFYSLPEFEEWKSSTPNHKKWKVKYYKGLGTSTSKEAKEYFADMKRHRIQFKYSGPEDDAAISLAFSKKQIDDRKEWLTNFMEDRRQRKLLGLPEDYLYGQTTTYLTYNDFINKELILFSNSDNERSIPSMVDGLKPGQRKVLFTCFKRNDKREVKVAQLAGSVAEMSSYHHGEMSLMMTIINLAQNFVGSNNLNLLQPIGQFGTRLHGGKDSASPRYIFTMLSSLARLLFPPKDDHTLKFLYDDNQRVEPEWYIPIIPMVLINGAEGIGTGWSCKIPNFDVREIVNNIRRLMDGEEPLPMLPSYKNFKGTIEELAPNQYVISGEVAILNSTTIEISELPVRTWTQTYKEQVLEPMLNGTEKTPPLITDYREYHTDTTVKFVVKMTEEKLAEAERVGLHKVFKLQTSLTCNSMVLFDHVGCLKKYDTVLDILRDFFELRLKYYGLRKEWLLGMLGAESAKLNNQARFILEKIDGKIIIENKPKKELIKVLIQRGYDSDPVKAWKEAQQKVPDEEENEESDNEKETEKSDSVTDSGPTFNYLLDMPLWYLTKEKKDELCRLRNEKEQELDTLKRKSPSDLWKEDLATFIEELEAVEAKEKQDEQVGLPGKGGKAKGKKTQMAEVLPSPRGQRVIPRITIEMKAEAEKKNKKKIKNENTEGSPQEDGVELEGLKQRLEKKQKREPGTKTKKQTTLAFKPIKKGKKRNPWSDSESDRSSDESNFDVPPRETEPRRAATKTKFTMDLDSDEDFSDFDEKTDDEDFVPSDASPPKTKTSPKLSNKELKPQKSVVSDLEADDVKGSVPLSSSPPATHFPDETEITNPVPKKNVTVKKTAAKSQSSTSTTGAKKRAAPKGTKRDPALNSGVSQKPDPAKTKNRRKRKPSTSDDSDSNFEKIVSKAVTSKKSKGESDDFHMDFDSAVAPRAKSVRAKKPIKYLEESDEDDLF

[5] = tested on: HCT116 and HCT116p53KO cells; assay: Annexin V-FITC / PI staining; assay type: cell-based, human; settings: 1 μM, 24 h
[6] = tested on: i.p. transplanted P388 leukemia; assay: Antitumor efficacy, i.p. transplanted P388 leukemia
[7] = tested on: 364 human protein kinases; assay: In vitro kinase panel; assay type: biochemical
[8] = Water solubility of salts; assay type: physicochemical

SMILES: CC[C@@]1(O)C(=O)OCc2c1cc1n(c2=O)Cc2cc3ccccc3nc2-1 [CPT, camptothecin]
- Top1 mediated specific DNA cleavage (Top1 [1]): pattern of bands characteristic for specific Top1 poisons

SMILES: COc1cccc2c1C(=O)c1c(O)c3c(c(O)c1C2=O)C[C@@](O)(C(=O)CO)C[C@@H]3O[C@H]1C[C@H](N)[C@H](O)[C@H](C)O1 [Compound 1, doxorubicin, reference compound]
- cell associated fluorescence (intracellular accumulation), K562 vs K562/4 (K562 and K562/4 cells): increased to a much lesser extent

- IC50 (Aurora B): 130 to 150 µM
- Top1 mediated specific DNA cleavage (Top1 [1]): cleaved some but not all these sites
SMILES: O=C1c2ccccc2C(=O)c2c1c(O)c1[nH]cc(CN[C@@H]3CCNC3)c1c2O [Compound 2]
- T/Cmax [2]: 155%

SMILES: CS(=O)(=O)O.Cc1oc2c(O)c3c(c(O)c2c1C(=O)N1CC[C@@H](N)C1)C(=O)c1ccccc1C3=O [Compound 3c, (R)-3-(3-Aminopyrrolidine-1-carbonyl)-4,11-dihydroxy-2methylanthra [2,3-b]furan-5,10-dione methanesulfonate]
- Top1 mediated relaxation of supercoiled plasmid DNA (Top1 [3]): attenuated Top1 mediated relaxation of the supercoiled plasmid DNA in a dose dependent manner
- Top1 mediated specific DNA cleavage (Top1 [1]): poorly generated the specific DNA cleavage
- cell associated fluorescence (intracellular accumulation), K562 vs K562/4 (K562 and K562/4 cells): increased similarly over time
- cytotoxicity against donor peripheral blood lymphocytes [4]: no detectable cytotoxicity
- Top2 mediated plasmid DNA relaxation (Top2): even at 40 μM a certain amount of relaxed plasmid DNA was detectable

SMILES: CS(=O)(=O)O.Cc1oc2c(O)c3c(c(O)c2c1C(=O)N1CC[C@H](N)C1)C(=O)c1ccccc1C3=O [Compound 3d, (S)-3-(3-Aminopyrrolidine-1-carbonyl)-4,11-dihydroxy-2methylanthra [2,3-b]furan-5,10-dione methanesulfonate]
- apoptotic (Annexin V+/PI−) events [5]: increased percentage of apoptotic
- Top1 mediated relaxation of supercoiled plasmid DNA (Top1 [3]): attenuated Top1 mediated relaxation of the supercoiled plasmid DNA in a dose dependent manner
- T/C, % ([6]; Table 3, n = 6, single 50 mg/kg i.p. daily days 1–5 (total 250 mg/kg)): death from drug toxicity
- toxicity at single dose of 50 mg/kg ([6]; single dose 50 mg/kg i.p. daily for 5 days (total 250 mg/kg)): lethally toxic
- general drug toxicity ([6]; single doses of 5–40 mg/kg i.p. daily for 5 days, during or after treatment): No signs of general drug toxicity
- Top1 mediated specific DNA cleavage (Top1 [1]): poorly generated the specific DNA cleavage
- human protein kinases attenuated (IC50 < 5 μM) out of 364 [7]: 2.5%
- cell associated fluorescence (intracellular accumulation), K562 vs K562/4 (K562 and K562/4 cells): increased similarly over time
- cytotoxicity against donor peripheral blood lymphocytes [4]: no detectable cytotoxicity
- Top2 mediated plasmid DNA relaxation (Top2): even at 40 μM a certain amount of relaxed plasmid DNA was detectable

SMILES: CS(=O)(=O)O.Cc1oc2c(O)c3c(c(O)c2c1C(=O)N1CCN(C)CC1)C(=O)c1ccccc1C3=O [Compound 3l, 4,11-Dihydroxy-2-methyl-3-(4-methylpiperazine-1carbonyl)anthra [2,3-b]furan-5,10-dione methanesulfonate]
- water solubility of the salt [8]: water soluble mesylates

SMILES: COc1cc2c3c(n(CCCNCCO)c(=O)c2cc1OC)-c1cc2c(cc1C3=O)OCO2 [MJ–III–65]
- Top1 mediated specific DNA cleavage (Top1 [1]): pattern of bands characteristic for specific Top1 poisons

SMILES: COc1cc([C@@H]2c3cc4c(cc3[C@@H](O[C@@H]3O[C@@H]5CO[C@@H](C)O[C@H]5[C@H](O)[C@H]3O)[C@H]3COC(=O)[C@H]23)OCO4)cc(OC)c1O [VP16, etoposide, reference compound]
- Top2 mediated plasmid DNA relaxation (Top2): even at 200 μM of VP16 the DNA remained largely unwound
